Experimental data taken from patent publication US8945929B2, “Marker for determination of sensitivity to anti-cancer agent” (Keio University, priority 2008, dated 2015).
Where a name gives a salt, the structure may show the parent alone.

Assays:
[1] = system: cultured human colorectal cancer cells, HCT-116; details: HCT-116, as obtained from Yakult Honsha; cited from earlier work
[2] = system: cultured human colorectal cancer cells, HT-29; details: HT-29, as obtained from Yakult Honsha; cited from earlier work
[3] = system: cultured human colorectal cancer cells, HCT-116; assay: Tumor size in nude mice with subcutaneously transplanted HCT-116 cells; type: in vivo, nude mice (BALB/cAJcl-nu/nu); details: 7 days after the administration
Procedure: (§1) Six-week-old, male nude mice (BALB/cAJcl-nu/nu) purchased from CLEA Japan, Inc. were used and allowed to ingest a general feed and drink water freely in a thermostatic chamber. A protocol following the animal experiment guideline in School of Medicine, Keio University was applied and then approved. Then, this examination was carried out humanely.
(§2) CAMPTO™ as a preparation of CPT-11 and a solvent for dissolving Campto (hereinafter, referred to as “solvent”) were obtained from Yakult Honsha, Co., Ltd.
(§3) After the transplantation, a tumor size was measured by using the following formula: (longer tumor diameter)×(shorter tumor diameter)^2/2. When the tumor size reached 300 to 400 mm^3, the mice were randomly assigned to a CPT-11 administration group and a solvent administration group (a CPT-11 non-administration group). The day when the mice were assigned to two groups was defined as day 0. CAMPTO™ as a preparation of CPT-11 in an amount of 4.5 mL/kg (90 mg/kg as CPT-11 amount) and the solvent for dissolving CAMPTO™ (D-sorbitol, lactic acid, pH adjuster) were administered slowly to the CPT-11 administration group and a CPT-11 non-administration group, respectively, from the tail vein. The tumor size was measured on day 0, and 12 hours, 24 hours, 72 hours, and 7 days after the administration. The blood was collected after the dissection. After the centrifugation of the collected blood at 10,000 rpm for 10 minutes, a serum fraction was frozen with liquid nitrogen and stored at −80° C. until the serum fraction was used in preparation of a sample for metabolome analysis. As a control group, a cancer cell-non-transplanted group was produced and the same treatment was carried out.
(§4) After the transplantation, a tumor size was measured by using the following formula: (longer tumor diameter)×(shorter tumor diameter)^2/2. When the tumor size reached 300 to 400 mm^3, the mice were randomly assigned to a CPT-11 administration group and a solvent administration group. The tumor size was measured on day 0, and 12 hours, 24 hours, 72 hours, and 7 days after the administration. […]

[4] = system: cultured human colorectal cancer cells, HT-29; assay: Tumor size in nude mice with subcutaneously transplanted HT-29 cells; type: in vivo, nude mice (BALB/cAJcl-nu/nu); details: conclusion from tumor size, 7 days after the administration
Procedure: as §1, §2
as §4, with “group (a CPT-11 non-administration group). The day when the mice were assigned to two groups was defined as day 0. […]” for “group.”
After the transplantation, a tumor size was measured by using the following formula: (longer tumor diameter)×(shorter tumor diameter)^2/2. […] The tumor size was measured on day 0, and 12 hours, 24 hours, 72 hours, and 7 days after the administration. […]

[5] = system: cultured human colorectal cancer cells, HCT-116; assay: Serum metabolome (CE-TOFMS) of HCT-116 cancer-bearing mice after CPT-11; type: in vivo, nude mice (BALB/cAJcl-nu/nu); details: HCT-116 transplanted, 90 mg/kg as CPT-11
Procedure: as §3, with “After the centrifugation of the collected blood at 10,000 rpm for 10 minutes, a serum fraction was frozen with liquid nitrogen and stored at −80° C. until the serum fraction was used in preparation of a sample for metabolome analysis. As a control group, a cancer cell-non-transplanted group was produced and the same treatment was carried out.” left out
(§5) The comprehensive measurement of the metabolites in a serum was carried out by using a capillary electrophoresis time-of-flight mass spectrometry (CE-TOFMS) system manufactured by Agilent Technologies, Inc. In this examination, a voltage was applied such that an output of the capillary was a cathode, and cationic metabolites were comprehensively measured. […]

[6] = system: cultured human colorectal cancer cells, HT-29; assay: Serum metabolome (CE-TOFMS) of HT-29 cancer-bearing mice after CPT-11; type: in vivo, nude mice (BALB/cAJcl-nu/nu); details: HT-29 transplanted, 90 mg/kg as CPT-11
Procedure: as §3, with “After the centrifugation of the collected blood at 10,000 rpm for 10 minutes, a serum fraction was frozen with liquid nitrogen and stored at −80° C. until the serum fraction was used in preparation of a sample for metabolome analysis. As a control group, a cancer cell-non-transplanted group was produced and the same treatment was carried out.” left out
as §5

[7] = background statement; cited from earlier work
[8] = 12 hours after the administration
[9] = 24 hours after the administration

## CCc1c2c(nc3ccc(O)cc13)-c1cc3c(c(=O)n1C2)COC(=O)[C@]3(O)CC [SN-38, 7-ethyl-10-hydroxycamptothecin]
[1]
  sensitivity of cells to SN-38: high sensitivity
[2]
  sensitivity of cells to SN-38: low sensitivity

## CCc1c2c(nc3ccc(OC(=O)N4CCC(N5CCCCC5)CC4)cc13)-c1cc3c(c(=O)n1C2)COC(=O)[C@]3(O)CC [CPT-11, Irinotecan hydrochloride]
[3]; 90 mg/kg as CPT-11, tail vein
  tumor size, CPT-11 group with HCT-116 vs CPT-11 group with HT-29: significant difference (p=0.04979)
[3]; HCT-116 transplanted, 90 mg/kg as CPT-11, tail vein
  tumor size, CPT-11 administration group vs solvent administration group: significant difference (p=0.01319)
[3]; conclusion from tumor size
  sensitivity of HCT-116 to CPT-11 compared to HT-29: high sensitivity
[4]
  sensitivity of HT-29 to CPT-11 compared to HCT-116: low sensitivity
[5]; [8]
  serum expression level of peak at m/z 104.070 (N,N-dimethyl glycine), CPT-11 administration group: decreased to the same level as in the control group
[5]; [9]
  serum expression level of peak at m/z 166.086 (L-phenylalanine), CPT-11 administration group: decreased to the same level as in the control group
[6]; [8]
  serum expression level of peak at m/z 104.070 (N,N-dimethyl glycine), CPT-11 group vs solvent group: the same level
[6]; [9]
  serum expression level of peak at m/z 166.086 (L-phenylalanine), CPT-11 group vs solvent group: the same level

## CCc1c2c(nc3ccc(O[C@@H]4O[C@H](C(=O)O)[C@@H](O)[C@H](O)[C@H]4O)cc13)-c1cc3c(c(=O)n1C2)COC(=O)[C@]3(O)CC [SN-38G]
[7]
  cytotoxicity: no cytotoxicity
